Reference: US10414788B2, “Substituted thienopyrrolopyrimidine ribonucleosides for therapeutic use” (USTAV ORGANICKE CHEMIE A BIOCHEMIE AV CR, V.V.I., priority 2016, dated 2019)
pIC50: −log10 of the molar value.

Tests used:
[1] = system: A549 (human lung adenocarcinoma); experiment: MTT in vitro cytotoxic test, A549; type: cell-based; settings: A549 cells
Excerpt: (§1) MTT test was used for in vitro evaluation of antitumor activities of newly synthesized compounds on cell lines derived from normal tissues or tumors. Specifically, cell lines K562 (human […]), K562-Tax (human […] myeloid leukemia, paclitaxel resistant subline, overexpress multiple drug resistant protein PgP), CEM (T-lymfoblastic leukemia), CEM-DNR-bulk (T-lymfoblastic leukemia, doxorubicin resistant), A549 (human lung adenocarcinoma), HCT116 wt (human colorectal cancer, wild-type), HCT116p53−/−(human colorectal cancer, mutant p53) a U2OS (human bone osteosarcoma) were used.
(§2) Express characteristics, susceptibility profiles of classic antitumor drugs as well as methodology of cytotoxic MTT test have been repeatedly published {ref.:Noskova, V.; Dzubak, P.; Kuzmina, G.; Ludkova, A.; Stehlik, D.; Trojanec, R.; Janostakova, A.; Korinkova, G.; Mihal, V.; Hajduch, M., Neoplasma 2002, 49, 418-425}.

[2] = system: CCRF-CEM (CEM, T-lymfoblastic leukemia); experiment: MTT in vitro cytotoxic test, CCRF-CEM; type: cell-based; settings: Homo sapiens, CCRF-CEM cells
Excerpt: as §1, §2

[3] = system: CEM-DNR-bulk (T-lymfoblastic leukemia, doxorubicin resistant); experiment: MTT in vitro cytotoxic test, CEM-DNR; type: cell-based; settings: Homo sapiens, CEM-DNR cells (doxorubicin resistant)
Excerpt: as §1, §2

[4] = system: HCT116 wt (human colorectal cancer, wild-type); experiment: MTT in vitro cytotoxic test, HCT116; type: cell-based; settings: HCT-116, HCT116 cells (p53 wild type)
Excerpt: as §1, §2

[5] = system: HCT116p53−/− (human colorectal cancer, mutant p53); experiment: MTT in vitro cytotoxic test, HCT116p53; type: cell-based; settings: HCT116p53−/− cells
Excerpt: as §1, §2

[6] = system: K562 (human acute myeloid leukemia); experiment: MTT in vitro cytotoxic test, K562; type: cell-based; settings: K562 cells
Excerpt: as §1, §2

[7] = system: K562-Tax (human acute myeloid leukemia, paclitaxel resistant subline); experiment: MTT in vitro cytotoxic test, K562-TAX; type: cell-based; settings: K562-TAX cells (paclitaxel resistant)
Excerpt: as §1, §2

[8] = system: U2OS (human bone osteosarcoma); experiment: MTT in vitro cytotoxic test, U2OS; type: cell-based; settings: U2OS cells
Excerpt: as §1, §2

[9] = system: cancer cell lines of various histogenetic origin; experiment: In vitro cytotoxic test, summary over cancer cell lines; type: cell-based, human; settings: text summary of Table 4
Excerpt: as §1, §2

Compound	pIC50 [1]	pIC50 [2]	pIC50 [3]	pIC50 [4]	pIC50 [5]	pIC50 [6]	pIC50 [7]	pIC50 [8]	IC50 values (range in words) [9]	melting point [°C]
OC[C@H]1O[C@@H](n2c3ncnc(-c4ccco4)c3c3ccsc32)[C@H](O)[C@@H]1O [Compound 1a, 4-(Furan-2-yl)-8-(β-D-ribofuranosyl)-8H-thieno[3′,2′:4,5]pyrrolo[2,3-d]pyrimidine]	4.30 to 4.60	4.30 to 4.60	4.30 to 4.60	4.30 to 4.60	4.30 to 4.60	4.30 to 4.60	4.30 to 4.60	4.30 to 4.60		
OC[C@H]1O[C@@H](n2c3ncnc(-c4ccoc4)c3c3ccsc32)[C@H](O)[C@@H]1O [Compound 1b, 4-(Furan-3-yl)-8-(β-D-ribofuranosyl)-8H-thieno[3′,2′:4,5]pyrrolo[2,3-d]pyrimidine]	4.30 to 4.60	4.30 to 4.60	4.30 to 4.60	4.30 to 4.60	4.30 to 4.60	4.30 to 4.60	4.30 to 4.60	4.30 to 4.60		
OC[C@H]1O[C@@H](n2c3ncnc(-c4cc5ccccc5o4)c3c3ccsc32)[C@H](O)[C@@H]1O [Compound 1c, 4-(Benzofuran-2-yl)-8-(β-D-ribofuranosyl)-8H-thieno[3′,2′:4,5]pyrrolo[2,3-d]pyrimidine]	4.30 to 4.60	4.60 to 5.00	4.60 to 5.00	4.30 to 4.60	4.30 to 4.60	4.30 to 4.60	4.60 to 5.00	4.30 to 4.60	micromolar range	
Cc1ncnc2c1c1ccsc1n2[C@@H]1O[C@H](CO)[C@@H](O)[C@H]1O [Compound 1d, 4-Methyl-8-(β-D-ribofuranosyl)-8H-thieno[3′,2′:4,5]pyrrolo[2,3-d]pyrimidine]	6.05 to 6.70	6.70 to 8.00	4.30 to 4.60	6.05 to 6.70	6.05 to 6.70	6.70 to 8.00	5.00 to 6.05	6.70 to 8.00	sub-micromolar to nanomolar	126 to 128
CN(C)c1ncnc2c1c1ccsc1n2[C@@H]1O[C@H](CO)[C@@H](O)[C@H]1O [Compound 1e, 4-(N,N-dimethylamino)-8-(β-D-ribofuranosyl)-8H-thieno[3′,2′:4,5]pyrrolo[2,3-d]pyrimidine]	4.30 to 4.60	4.30 to 4.60	4.30 to 4.60	4.30 to 4.60	4.30 to 4.60	4.30 to 4.60	4.30 to 4.60	4.30 to 4.60		117
Nc1ncnc2c1c1ccsc1n2[C@@H]1O[C@H](CO)[C@@H](O)[C@H]1O [Compound 1f, 4-Amino-8-(β-D-ribofuranosyl)-8H-thieno[3′,2′:4,5]pyrrolo[2,3-d]pyrimidine]	4.30 to 4.60	6.05 to 6.70	4.30 to 4.60	4.30 to 4.60	5.00 to 6.05	4.30 to 4.60	6.05 to 6.70	6.05 to 6.70	micromolar range	98
COc1ncnc2c1c1ccsc1n2[C@@H]1O[C@H](CO)[C@@H](O)[C@H]1O [Compound 1g, 4-Methoxy-8-(β-D-ribofuranosyl)-8H-thieno[3′,2′:4,5]pyrrolo[2,3-d]pyrimidine]	5.00 to 6.05	6.70 to 8.00	4.30 to 4.60	6.05 to 6.70	6.05 to 6.70	6.05 to 6.70	4.60 to 5.00	6.70 to 8.00	sub-micromolar to nanomolar	159 to 160
CSc1ncnc2c1c1ccsc1n2[C@@H]1O[C@H](CO)[C@@H](O)[C@H]1O [Compound 1h, 4-(Methylsulfanyl)-8-(β-D-ribofuranosyl)-8H-thieno[3′,2′:4,5]pyrrolo[2,3-d]pyrimidine]	6.05 to 6.70	6.70 to 8.00	4.30 to 4.60	6.70 to 8.00	6.05 to 6.70	6.05 to 6.70	4.60 to 5.00	6.70 to 8.00	sub-micromolar to nanomolar	148 to 152
